# pIC50: −log10 of the molar value.
# Assays:
# Experiment in all cases: Growth inhibition of cancer cell lines
# Type in all cases: cell-based
# MCF-7 = conditions: Homo sapiens, MCF7; MCF-7, breast cancer; 50% inhibition of growth
# Excerpt: (§1) We tested the ability of compound I-1 to inhibit the growth of 12 additional cell lines, derived from a variety of different types of human cancer.
# CFPAC-1 = conditions: Homo sapiens; CFPAC-1, pancreatic adenocarcinoma; 50% inhibition of growth
# Excerpt: as §1
# IGROV-1 = conditions: Homo sapiens; IGROV-1, ovarian adenocarcinoma; 50% inhibition of growth
# Excerpt: as §1
# UACC-62 = conditions: Homo sapiens; UACC-62, melanoma; 50% inhibition of growth
# Excerpt: as §1
# MiaPaca-2 = conditions: Homo sapiens, MIA PaCa-2; MiaPaca-2, pancreatic carcinoma; 50% inhibition of growth
# Excerpt: as §1
# DLD-1 = conditions: Homo sapiens; DLD-1, Dukes' type C, colorectal adenocarcinoma; 50% inhibition of growth
# Excerpt: as §1
# Colo205 = conditions: Homo sapiens, COLO 205; Colo205, Dukes' type D, colorectal adenocarcinoma; 50% inhibition of growth
# Excerpt: as §1
# GIST T1 = conditions: Homo sapiens, GISTT1; GIST T1, gastrointestinal stromal tumor; 50% inhibition of growth
# Excerpt: as §1
# PC-3 = conditions: Homo sapiens; PC-3, prostate adenocarcinoma; 50% inhibition of growth
# Excerpt: as §1
# NCI-H69 = conditions: Homo sapiens; NCI-H69, small cell lung cancer; 50% inhibition of growth
# Excerpt: as §1
# RL = conditions: Homo sapiens, non-Hodgkin's lymphoma, 50% inhibition of growth
# Excerpt: as §1
# A498 = conditions: Homo sapiens; A498, kidney carcinoma; 50% inhibition of growth
# Excerpt: as §1
# A549 = conditions: Homo sapiens; A549, lung adenocarcinoma; 50% inhibition of growth
# Excerpt: as §1
compound,measurement,setting,value
CCC(=O)N1CCc2cc(-c3ccc(C(=O)NCc4cccnc4)cc3)ccc21 [Compound I-1],pIC50,MCF-7,5.22
same,pIC50,CFPAC-1,5.08
same,pIC50,IGROV-1,5.34
same,pIC50,UACC-62,< 5.00
same,pIC50,MiaPaca-2,5.47
same,pIC50,DLD-1,< 5.00
same,pIC50,Colo205,< 5.00
same,pIC50,GIST T1,6.01
same,pIC50,PC-3,5.26
same,pIC50,NCI-H69,5.82
same,pIC50,RL,6.89
same,pIC50,A498,< 5.00
same,pIC50,A549,< 5.00
